Source: US20020155192A1, “Yeast transport isoforms” (priority 2000, published 2002)

Key:
Assay type in all cases: biochemical
Odc1p [1] = target: T1, Odc1p (Saccharomyces cerevisiae, UniProt Q03028); experiment: Effect of inhibitors and external compounds on the [14C]oxoglutarate/oxoglutarate exchange by proteoliposomes reconstituted with Odc1p; conditions: Odc1p; for Inhibition (%) of [14C]oxoglutarate/oxoglutarate exchange: 20 mM internal oxoglutarate, 0.4 mM [14C]oxoglutarate, 45 seconds, inhibitors 4 mM, except mercurials 10 μM, carboxyatractyloside 0.1 mM, N-ethylmaleimide and α-cyanocinnamate 2 mM; for inhibition of [14C]oxoglutarate/oxoglutarate exchange (in words): Table III
T1 construct: made in house; host or cells: S. cerevisiae odc1Δodc2Δ (YPH499 background) carrying pYES2-based pODC1; purified from mitochondria on Ni-NTA agarose
T1 sequence (Q03028 1-310): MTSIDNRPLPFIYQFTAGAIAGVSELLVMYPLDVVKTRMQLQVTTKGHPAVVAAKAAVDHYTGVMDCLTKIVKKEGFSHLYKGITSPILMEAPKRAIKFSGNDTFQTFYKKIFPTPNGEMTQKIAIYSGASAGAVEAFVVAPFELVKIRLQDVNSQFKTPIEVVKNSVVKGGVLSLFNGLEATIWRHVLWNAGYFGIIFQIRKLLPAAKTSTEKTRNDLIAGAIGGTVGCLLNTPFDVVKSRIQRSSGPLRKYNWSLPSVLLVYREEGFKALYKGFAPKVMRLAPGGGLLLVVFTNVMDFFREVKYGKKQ

Odc2p = target: T2, Odc2p (Saccharomyces cerevisiae, UniProt Q99297); experiment: Effect of inhibitors and external compounds on the [14C]oxoglutarate/oxoglutarate exchange by proteoliposomes reconstituted with Odc2p; conditions: Odc2p; for inhibition of [14C]oxoglutarate/oxoglutarate exchange (in words): Table III
T2 construct: made in house; host or cells: S. cerevisiae odc1Δodc2Δ (YPH499 background) carrying pYES2-based pODC2; purified from mitochondria on Ni-NTA agarose
T2 sequence (Q99297 1-307): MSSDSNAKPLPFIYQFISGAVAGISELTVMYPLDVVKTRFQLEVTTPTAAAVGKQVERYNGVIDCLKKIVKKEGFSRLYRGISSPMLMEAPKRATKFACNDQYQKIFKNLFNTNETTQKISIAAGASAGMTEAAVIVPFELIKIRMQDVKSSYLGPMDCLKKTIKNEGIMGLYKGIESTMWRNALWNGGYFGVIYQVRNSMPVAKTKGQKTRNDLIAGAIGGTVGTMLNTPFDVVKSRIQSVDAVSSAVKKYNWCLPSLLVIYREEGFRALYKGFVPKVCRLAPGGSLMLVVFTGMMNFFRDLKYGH

Odc1p [2] = target: T1, Odc1p; experiment: Efflux of [14C]oxoglutarate from proteoliposomes reconstituted with recombinant Odc1p; conditions: 10 mM oxoglutarate with 30 mM pyridoxal 5′-phosphate and 10 mM bathophenanthroline added together
Description: FIG. 4. Efflux of [^14C]oxoglutarate from proteoliposomes. Proteoliposomes were reconstituted with recombinant Odc1p in the presence of 20 mM oxoglutarate, and then the internal substrate pool was labelled by carrier-mediated exchange equilibration. After removal of external substrate by Sephadex G-75 chromatography, the efflux of [^14C]oxoglutarate was started by adding buffer F alone (●) or 10 mM oxoglutarate (▪), or 10 mM oxoglutarate, 30 mM pyridoxal 5′-phosphate and 10 mM bathophenanthroline (□) in the same buffer.
External substrate was removed from proteoliposomes on a Sephadex G-75 column preequilibrated with buffer F (50 mM NaCl and 10 mM PIPES, pH 7.0). […] The external radioactivity was removed on Sephadex G-75 and the internal radioactivity was measured. […] The initial rate of transport was calculated in mmol/min per g protein from the time course of isotope equilibration (13). […] For efflux measurements, the internal substrate pool of the proteoliposomes was made radioactive by carrier-mediated exchange equilibration (13) with 0.1 mM [^14C]oxoglutarate added at high specific radioactivity. After 60 min, the residual external radioactivity was removed by passing the proteoliposomes again through a column of Sephadex G-75. […]

Structure (SMILES)	Inhibition (%) of [14C]oxoglutarate/oxoglutarate exchange (Odc1p [1]) [%]	inhibition of [14C]oxoglutarate/oxoglutarate exchange (in words) (Odc1p [1])	Inhibition (%) of [14C]oxoglutarate/oxoglutarate exchange (Odc2p; 20 mM internal oxoglutarate, 0.4 mM [14C]oxoglutarate, 45 seconds, inhibitors 4 mM, except mercurials 10 μM, carboxyatractyloside 0.1 mM, N-ethylmaleimide and α-cyanocinnamate 2 mM) [%]	inhibition of [14C]oxoglutarate/oxoglutarate exchange (in words) (Odc2p)	effect on efflux of [14C]oxoglutarate induced by external oxoglutarate (in words) (Odc1p [2])
c1ccc(-c2ccnc3c2ccc2c(-c4ccccc4)ccnc23)cc1 [Bathophenanthroline]	97	inhibited strongly	89	inhibited strongly	prevented completely
Cc1ncc(COP(=O)(O)O)c(C=O)c1O [Pyridoxal 5′-phosphate]	92	inhibited strongly		inhibited strongly	prevented completely
